Consider 21 compounds from patent US6291432A (Japan Energy Corporation, priority 1996, dated 2001).

The target of the first assay is T1, recombinant HIV-1 protease (Human immunodeficiency virus type 1 group M subtype B, UniProt P04585).
T1 construct: measured using a recombinant HIV-1 protease
The assay can be described thus: HIV protease inhibition activity (enzyme activity inhibition rate). Format: biochemical. The settings on record: 50 nM final concentration of test compound; 60 min at 37° C. How it is done: The protease activity was measured using a recombinant HIV-1 protease (see Biochemistry, 250 (9)-264 (1990)) and a synthesized peptide substrate. The inhibition rate was calculated by determining a peptide fragment generated by cleavage between Tyr-Pro of the synthesized substrate after the reaction of 60 min at 37° C. using a reversed phase HPLC in the presence of the test compounds in various concentrations (see, for example, Japanese Patent Application Laid-open No. 170722/1993).
Examples of the evaluation results of the HIV protease inhibition activity of the tripeptide compound of the present invention by the above-described method is shown in Table 1. […] The concentration of the test compounds in Table 1 represents the final concentration in the reaction mixture.
`Cc1ccccc1CNC(=O)[C@H]1N(C(=O)[C@@H](O)[C@H](Cc2ccccc2)NC(=O)[C@@H](NC(=O)c2cc(=O)c3ccccc3o2)C(C)C)CSC1(C)C` [Example 12, (R)-N-(2-methylbenzyl)-3-{(2S,3S)-3-[N-(2-chromonecarbonyl)-L-valyl]amino-2-hydroxy-4-phenylbutanoyl}-5,5-dimethyl-1,3-thiazolidine-4-carboxamide]: the “Enzyme activity inhibition rate (%) (addition concentration of 50 nM)” value (shortened to “Enzyme activity inhibition rate (%)”) was 97.4%. For the compound “(R)-N-(2-methylbenzyl)-3-{(2S,3S)-3-[N-(3-benzylphenoxyacetyl)-L-valyl]amin o-2-hydroxy-4-phenylbutanoyl}-5,5-dimethyl-1,3-thiazolidine-4-carboxamide [Example 17]”, the “Enzyme activity inhibition rate (%)” value was found to be 97.1%.

As for `CC[C@H](NC(=O)COc1ccc2ncccc2c1)C(=O)N[C@@H](Cc1ccccc1)[C@H](O)C(=O)N1CSC(C)(C)[C@H]1C(=O)NCc1ccccc1C` [Example 24, (R)-N-(2-methylbenzyl)-3-{(2S,3S)-2-hydroxy-3-[(S)-2-(6-quinolinyloxyacetyl)aminobutanoyl]amino-4-phenylbutanoyl}-5,5-dimethyl-1-thiazolidine-4-carbox amide], the “Enzyme activity inhibition rate (%)” value was 98.1%.

Staying with this assay, now noted: 50 nM final concentration of test compound; 60 min at 37° C.; read-out: Enzyme activity inhibition rate (%) (addition concentration of 50 nM).
On to `Cc1ccccc1CNC(=O)[C@H]1N(C(=O)[C@@H](O)[C@H](Cc2ccccc2)NC(=O)[C@@H](NC(=O)COc2cccc3cnccc23)C(C)C)CSC1(C)C` [Example 8, (R)-N-(2-methylbenzyl)-3-{(2S,3S)-3-[N-(5-isoquinolinyloxyacetyl)-L-valyl]amino-2-hydroxy-4-phenylbutanoyl}-5,5-dimethyl-1,3-thiazolidine-4-carboxamide], for which the inhibition at 0.05 µM was determined as 97.7%. On the same count and under the same terms, as for `Cc1ccccc1CNC(=O)[C@H]1N(C(=O)[C@@H](O)[C@H](Cc2ccccc2)NC(=O)[C@H](CC(N)=O)NC(=O)c2cnc3ccccc3n2)CSC1(C)C` [Example 18, (R)-N-(2-methylbenzyl)-3-{(2S,3S)-3-[N-(2-quinoxalinecarbonyl)-L-asparaginyl]amino-2-hydroxy-4-phenylbutanoyl}-5,5-dimethyl-1,3-thiazolidine-4-carboxamide], the figure is 98.8%; as for `COCC(=O)N[C@H](C(=O)N[C@@H](Cc1ccccc1)[C@H](O)C(=O)N1CSC(C)(C)[C@H]1C(=O)NCc1ccccc1C)C(C)C` [Example 31, (R)-N-(2-methylbenzyl)-3-{(2S,3S)-2-hydroxy-3-[(S)-2-(methoxyacetyl)amino-3-methylbutanoyl]amino-4-phenylbutanoyl}-5,5-dimethyl-1,3-thiazolidine-4-car boxamide], 89.6%; as for `Cc1ccccc1CNC(=O)[C@@H]1[C@@H](C)OCN1C(=O)[C@@H](O)[C@H](Cc1ccccc1)NC(=O)[C@H](CC(N)=O)NC(=O)OCc1ccccc1` [Example 9, (4S,5R)-N-(2-methylbenzyl)-3-{(2S,3S)-3-[N-(benzyloxycarbonyl)-L-asparaginyl]amino-2-hydroxy-4-phenylbutanoyl}-5-methyl-1,3-oxazolidine-4-carboxamide], 61.9%. For `CC1(C)SCN(C(=O)[C@@H](O)[C@H](Cc2ccccc2)NC(=O)[C@H](CC(N)=O)NC(=O)OCc2ccccc2)[C@@H]1C(=O)NCc1ccccc1Cl` [Example 5, (R)-N-(2-chlorobenzyl)-3-{(2S,3S)-3-[N-(benzyloxycarbonyl)-L-asparaginyl]amino-2-hydroxy-4-phenylbutanoyl}-5,5-dimethyl-1,3-thiazolidine-4-carboxamide], the inhibition at 0.05 µM is 98.4%. On the same count and under the same terms, in the case of `Cc1ccccc1CNC(=O)[C@H]1N(C(=O)[C@@H](O)[C@H](Cc2ccccc2)NC(=O)[C@@H](NC(=O)c2ccc3ccccc3n2)C(C)C)CSC1(C)C` [Example 13, (R)-N-(2-methylbenzyl)-3-{(2S,3S)-3-[N-(2-quinolinecarbonyl)-L-valyl]amino-2-hydroxy-4-phenylbutanoyl}-5,5-dimethyl-1,3-thiazolidine-4-carboxamide] it was 96.6%. As to `Cc1ccccc1CNC(=O)[C@H]1N(C(=O)[C@@H](O)[C@H](Cc2ccccc2)NC(=O)[C@@H](NC(=O)COc2cccc3ncccc23)C(C)C)CSC1(C)C` [Example 23, (R)-N-(2-methylbenzyl)-3-{(2S,3S)-2-hydroxy-3-[(S)-2-(5-quinolinyloxyacetyl)amino-3-methylbutanoyl]amino-4-phenylbutanoyl}-5,5-dimethyl-1,3-thiazolidine-4-carboxamide], the inhibition at 0.05 µM is 98.5%.

For `Cc1ccccc1CNC(=O)[C@@H]1CSCN1C(=O)[C@@H](O)[C@H](Cc1ccccc1)NC(=O)[C@H](CC(N)=O)NC(=O)OCc1ccccc1` [Example 2, (R)-N-(2-methylbenzyl)-3-{(2S,3S)-3-[N-(benzyloxycarbonyl)-L-asparaginyl]amino-2-hydroxy-4-phenylbutanoyl}-1,3-thiazolidine-4-carboxamide], the inhibition at 0.05 µM was 71.7%. Still for that read-out and setting: as for `Cc1ccccc1CNC(=O)[C@H]1N(C(=O)[C@@H](O)[C@H](Cc2ccccc2)NC(=O)[C@H](C)NC(=O)COc2cccc(N(C)C)c2)CSC1(C)C` [Example 26, (R)-N-(2-methylbenzyl)-3-{(2S,3S)-2-hydroxy-3-[(S)-2-(3-dimethylaminophenoxyacetyl)aminopropanoyl]amino-4-phenylbutanoyl}-5,5-dimethyl-1,3-thiazolidine-4-carboxamide], the figure is 99.9%; as for `Cc1ccccc1CNC(=O)[C@H]1N(C(=O)[C@@H](O)[C@H](Cc2ccccc2)NC(=O)[C@@H](NC(=O)c2nc3ccccc3[nH]2)C(C)C)CSC1(C)C` [Example 15, (R)-N-(2-methylbenzyl)-3-{(2S,3S)-3-[N-(2-benzimidazolecarbonyl)-L-valyl]amino-2-hydroxy-4-phenylbutanoyl}-5,5-dimethyl-1,3-thiazolidine-4-carboxamide], 92.8%; as for `Cc1ccccc1CNC(=O)[C@H]1N(C(=O)[C@@H](O)[C@H](Cc2ccccc2)NC(=O)[C@@H](NS(C)(=O)=O)C(C)C)CSC1(C)C` [Example 37, (R)-N-(2-methylbenzyl)-3-{(2S,3S)-2-hydroxy-3-[(S)-2-methanesulfonylamino-3-methylbutanoyl]amino-4-phenylbutanoyl}-5,5-dimethyl-1,3-thiazolidine-4-car boxamide], 70.1%. Same read-out and setting: in the case of `CC[C@H](NS(C)(=O)=O)C(=O)N[C@@H](Cc1ccccc1)[C@H](O)C(=O)N1CSC(C)(C)[C@H]1C(=O)NCc1ccccc1C` [Example 38, (R)-N-(2-methylbenzyl)-3-{(2S,3S)-2-hydroxy-3-[(S)-2-methanesulfonylaminobutanoyl]amino-4-phenylbutanoyl}-5,5-dimethyl-1,3-thiazolidine-4-carboxamide] it was 76%; in that of `CCOC(=O)N[C@H](C(=O)N[C@@H](Cc1ccccc1)[C@H](O)C(=O)N1CSC(C)(C)[C@H]1C(=O)NCc1ccccc1C)C(C)C` [Example 29, (R)-N-(2-methylbenzyl)-3-{(2S,3S)-2-hydroxy-3-[(S)-2-(ethoxycarbonyl)amino-3-methylbutanoyl]amino-4-phenylbutanoyl}-5,5-dimethyl-1,3-thiazolidine-4-ca rboxamide], 93%. The same measure, in the same setting: in the case of `COCCOC(=O)N[C@H](C(=O)N[C@@H](Cc1ccccc1)[C@H](O)C(=O)N1CSC(C)(C)[C@H]1C(=O)NCc1ccccc1C)C(C)C` [Example 30, (R)-N-(2-methylbenzyl)-3-{(2S,3S)-2-hydroxy-3-[(S)-2-(methoxyethoxycarbonyl)amino-3-methylbutanoyl]amino-4-phenylbutanoyl}-5,5-dimethyl-1,3-thiazolidine-4-carboxamide] it was 94.2%; in that of `COc1cccc2cc(C(=O)N[C@@H](C)C(=O)N[C@@H](Cc3ccccc3)[C@H](O)C(=O)N3CSC(C)(C)[C@H]3C(=O)NCc3ccccc3C)oc12` [Example 20, (R)-N-(2-methylbenzyl)-3-{(2S,3S)-2-hydroxy-3-[(S)-2-(7-methoxy-2-benzofurancarbonyl)aminopropanoyl]amino-4-phenylbutanoyl}-5,5-dimethyl-1,3-thiazolidine-4-carboxamide], 97.6%; in that of `Cc1ccccc1CNC(=O)[C@H]1N(C(=O)[C@@H](O)[C@H](Cc2ccccc2)NC(=O)[C@@H](NC(=O)c2cnc3ccccc3c2)C(C)C)CSC1(C)C` [Example 21, (R)-N-(2-methylbenzyl)-3-{(2S,3S)-2-hydroxy-3-[(S)-2-(3-quinolinecarbonyl)amino-3-methylbutanoyl]amino-4-phenylbutanoyl}-5,5-dimethyl-1,3-thiazolidine-4-carboxamide], 97.7%. As to `COC(=O)N[C@H](C(=O)N[C@@H](Cc1ccccc1)[C@H](O)C(=O)N1CSC(C)(C)[C@H]1C(=O)NCc1ccccc1C)[C@@H](C)O` [Example 39, (R)-N-(2-methylbenzyl)-3-{(2S,3S)-2-hydroxy-3-[N-(methoxycarbonyl)-L-threonyl]amino-4-phenylbutanoyl}-5,5-dimethyl-1,3-thiazolidine-4-carboxamide], the inhibition at 0.05 µM turned out to be 84.6%.

The same assay, now with this note: read-out: Enzyme activity inhibition rate (%) (addition concentration of 50 nM).
In the case of `CCOCC(=O)N[C@H](C(=O)N[C@@H](Cc1ccccc1)[C@H](O)C(=O)N1CSC(C)(C)[C@H]1C(=O)NCc1ccccc1C)C(C)C` [Example 32, (R)-N-(2-methylbenzyl)-3-{(2S,3S)-2-hydroxy-3-[(S)-2-(ethoxyacetyl)amino-3-methylbutanoyl]amino-4-phenylbutanoyl}-5,5-dimethyl-1,3-thiazolidine-4-carb oxamide], the inhibition at 0.05 µM was determined as 96.4%.
